Holding throughout (test): NCI-60 cell line screen, 48 h
Test [1] relates to EKVX NSCLC.
For test [2], the system named is SR leukemia.
The test system of test [3] is MALME-3M melanoma.
In test [4] the test system is NCI-H226 lung.
The test system of test [5] is ACHN renal.
Test [6] has as its system SK-OV-3 ovarian.
Test [7] has as its system OVCAR-8 ovarian.
Test [8] deals with SNB-75 CNS.
Test [9] deals with RPMI-8226 leukemia.
Test [10] relates to HOP-92 NSCLC.

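1) Cells in 96-well plates. 2) Compound, 48 h, 5 concentrations. 3) Linear interpolation between surrounding doses. 4) Unreached endpoint = highest concentration. GI50: concentration for 50% inhibition of growth. TGI is the concentration that stops growth completely.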

Take `COC(=O)CCC(NC(=S)N/N=C/c1ccco1)C(=O)OC` (centres undefined): the TGI in test [1], in test [2], in test [3], in [4], in [5] and in test [6] was above 100 µM throughout. The TGI in test [7] and in [8] was above 100 µM each time.

As to `O=C(NN1C(=O)CSC12CCCC2)c1[nH]c2ccc(Br)cc2c1-c1ccccc1`, the GI50 in [9] was 30.2 µM; in test [1] it was above 100 µM; in [3], 38.3 µM; in [4] it was above 100 µM; in test [5], above 100 µM; in [6], above 100 µM. Moreover, the GI50 is 33.8 µM in test [10], 41 µM in test [7] and 46.1 µM in test [8]. For the same molecule, the TGI in [9] was 86.5 µM; in [1], above 100 µM; in test [3], above 100 µM; in test [4], above 100 µM; in test [5], above 100 µM; in test [6] it was above 100 µM. Also, the TGI in [10], in test [7] and in test [8] was above 100 µM each time.

In the case of `Cc1[nH]c2ccccc2c1C1Cc2ccccc2N1C(=O)/C=C/C(=O)O` (centres undefined), the TGI in test [1], in [2], in [3], in [4], in test [5] and in test [6] was above 100 µM each time. Further, the TGI in [7] and in [8] was above 100 µM each time.

Turning to `CC#CC(=O)SCCNC(=O)CC`, the TGI in test [9] was above 10 µM; in test [1] it was above 10 µM; in [2] it was above 7.91 µM; in [3], above 10 µM; in [4], above 10 µM; in [5] it was above 10 µM. For the same molecule, the TGI in test [6], in test [7] and in test [8] was above 10 µM each time.

`COc1ccc(C(=O)C(c2ccc(OC)cc2)C2(O)C(=O)Nc3c2ccc(Cl)c3C)cc1` (centres undefined): the TGI in test [9], in test [1], in [3], in test [4], in [5] and in test [6] was above 100 µM throughout. Also, the TGI in [7] and in [8] was above 100 µM each time.

For `CCCOC(=O)N1CCN(/[N+]([O-])=N/Oc2ccc([N+](=O)[O-])cc2[N+](=O)[O-])CC1`, the GI50 in test [9] was 0.49 µM; in test [1], 2.64 µM; in test [2], 0.373 µM; in test [4], 1.46 µM; in test [5], 1.84 µM; in test [7], 9.35 µM. In [8], the GI50 is 18.2 µM. The TGI is 2.41 µM in test [9]; 7.79 µM in test [1]; above 100 µM in [2]; 4.3 µM in test [4]; 3.79 µM in [5]; 72.8 µM in [7]. This molecule yielded a TGI in test [8] of 36.1 µM.

As for `CCOC(=O)NC(=O)c1cn(CCCCCCOC(=O)NCCCCCCNC(=O)OCCCCCCn2cc(C(=O)NC(=O)OCC)c(=O)[nH]c2=O)c(=O)[nH]c1=O`, the TGI in test [9], in test [1], in [3], in test [4], in test [5] and in [6] was above 100 µM each time. In addition, the TGI in test [7] and in test [8] was above 100 µM each time.

Regarding `C[C@]12CC[C@H]3[C@@H](CC[C@]4(O)C[C@@H](O)CC[C@]34/C=N/O)[C@@]1(O)CC[C@@H]2C1=COC(=O)C1`, the TGI in test [1] was determined as 0.344 µM; in test [3], 1.09 µM; in [4] it was 1.35 µM; in test [5], 0.67 µM; in test [6] it was 0.403 µM; in test [10] it was 1.06 µM. The TGI came out at 0.458 µM in test [7] and 4.44 µM in [8].

As to `COc1cc(C2C(Cl)C(=O)N2NC(=O)c2ccc(N)cc2)ccc1O` (centres undefined), the TGI in test [9] is above 100 µM; in test [1] it was above 100 µM; in [3] it was 32.1 µM; in test [4], above 100 µM; in test [5] it was above 100 µM; in test [6], above 100 µM. For the same molecule, the TGI was 52.8 µM in test [10], 47.4 µM in test [7] and above 100 µM in test [8].

Regarding `O=C(Nc1ccc(Cl)c(Cl)c1)O/N=C\c1c(Cl)ccc([N+](=O)[O-])c1Cl`, the GI50 was 1.62 µM in test [9]; 0.878 µM in test [2]; 3.06 µM in test [4]; 1.65 µM in test [5]; 5.82 µM in [6]; 2.62 µM in test [7]. In test [8], the GI50 was 2.12 µM. In addition, the TGI in test [9] is 4.3 µM; in [2], 5.04 µM; in [4], 12.4 µM; in [5] it was 3.33 µM; in [6], 17.6 µM; in test [7], 8.47 µM. Moreover, in test [8], the TGI is 9.5 µM.

With `O=C(Nc1cccc(NC(=O)Nc2cc(C(F)(F)F)ccc2Cl)c1)Nc1cc(C(F)(F)F)ccc1Cl`, the GI50 was 1.87 µM in test [9]; 4.55 µM in test [3]; 1.85 µM in test [4]; 0.983 µM in test [5]; 2.9 µM in test [6]; 1.99 µM in test [10]. For the same molecule, the GI50 was 2.05 µM in test [7] and 1.56 µM in test [8]. Moreover, the TGI came to 50.7 µM in test [9]; 44.1 µM in test [3]; 9.28 µM in test [4]; 11.2 µM in [5]; 11.3 µM in test [6]; 5.06 µM in [10]. Also, the TGI was 15.7 µM in test [7] and 4.51 µM in [8].

For the molecule `O=c1c2ccccc2nc(-c2ccccc2)n1NC1OC(CO)C(O)C(O)C1O` (centres undefined), the TGI in [9], in test [1], in test [3], in test [4], in test [5] and in test [6] was above 100 µM throughout. For the same molecule, the TGI in test [10], in test [7] and in [8] was above 100 µM in each case.

For the origin of these results see PubChem BioAssay (NCI).
